Test results as given in patent US20020115699A1, “Method for treating renal disease” (SmithKline Beecham p.l.c., priority 1994, published 2002).
Values joined by “and” are separate entries in the source; they are usually repeats but may differ in a detail not shown here. Identical values can stand only once.

How the values were obtained:
[1] = tested on: Zucker fatty (fa/fa) rats; test: Urinary total protein (Bio-Rad dye-binding assay, 24 h urine) in 9 month Zucker rat study; format: in vivo; details: for URINARY PROTEIN CONCENTRATION: mean ± SEM
Method: A second study was performed in Zucker rats over a period of 9 months to investigate the longitudinal effects of the drug on systolic blood pressure and various indices of renal function, two of which are exemplified here. […] A third group of Zucker fatty rats and a further group of lean rats were given diet alone throughout the period of study. After dosing with the test compound, at monthly intervals measurements were made of systolic blood pressure, urinary total protein and urinary N-acetyl β-D-glucosaminidase (NAG) activity. Twenty-four hour urine collections, made in metabolism cages, were aliquoted and frozen at −70° C. until required for assay. Urinary protein concentration was measured using the Bio-Rad protein assay as modified for use in a 96-well microtitre plate. The assay is a dye-binding assay based on the differential colour change of a dye in response to various concentrations of protein (Bradford, Anal. Biochem., 72, 248, 1976). After a period of incubation with Dye Reagent, diluted urine samples are read at an optical density of 595 nm using a Molecular Devices multiplate reader.

obese Zucker fa/fa rats = test: Renal histopathology after 3 months dietary administration in obese Zucker fa/fa rats; format: in vivo, rat; set-up: key to Hydronephrosis (histopathological severity, kidney) / Chronic Nephropathy (histopathological severity, kidney): 0: None seen; ±: Minimal; +: Mild; + +: Moderate; + + +: Marked
Method: Obese Zucker rats are known to develop chronic nephropathy in addition to hyperlipidaemia, hyperinsulinaemia and peripheral insulin resistance (Kasiske et al 1985).
5-[4- [2-(N-methyl-N-(2-pyridyl)amino)ethoxy]benzyl]thiazolidine-2,4-dione (herein after referred to as ‘test compound’) was administered to 2-3 month old obese Zucker fa/fa rats by dietary administration to provide a daily dose over a period of 3 months ranging from 2.0-7.0 μmole/kg body weight. A group of age-matched obese Zucker fa/fa rats were given the same diet without the addition of the test compound, as was a group of lean Fa/? rats. At the end of the study, all of the control Zucker fa/fa rats had chronic nephropathy which involved dilated tubules, atrophied or hyperplastic tubular epithelial cells, thickened tubular basement membranes, segmented glomeruli or global glomerulosclerosis.
In the corresponding lean animals, 3/15 animals, a minimal degree of chronic nephropathy was seen.
Characteristically this involved dilation of the kidney pelvis.

[2] = tested on: Zucker fatty (fa/fa) rats; test: Systolic blood pressure (tail cuff) in 9 month Zucker rat study; format: in vivo; details: for SYSTOLIC BLOOD PRESSURE: Zucker fatty rats, 50 μmol/kg of diet from age 6-7 weeks (prior to renal complications), mean ± SEM
Method: A second study was performed in Zucker rats over a period of 9 months to investigate the longitudinal effects of the drug on systolic blood pressure and various indices of renal function, two of which are exemplified here. In one arm of the study, the drug was given in the diet (50 μmole/kg of diet) from aged 6-7 weeks in Zucker fatty (fa/fa) rats, whilst in a second arm of the study, drug treatment as above was delayed until proteinuria had become established after 4 months, indicative of structural damage already present in the kidneys. A third group of Zucker fatty rats and a further group of lean rats were given diet alone throughout the period of study.
After dosing with the test compound, at monthly intervals measurements were made of systolic blood pressure, urinary total protein and urinary N-acetyl β-D-glucosaminidase (NAG) activity.
Rats were enclosed in custom-built restrainers and placed on a shelf in a warming cabinet, whose temperature was controlled at approximately 30° C. An inflatable cuff with integral pulse sensor was attached to the tail of each rat. After warming for 20-30 min the tail cuff was inflated and deflated automatically and a measurement of systolic blood pressure made using an IITC Non-Invasive Blood Pressure Monitor. This cycle was repeated several times for each rat until stable values of blood pressure were obtained.
In the tables below, results are given as mean values for the group ±the standard error of the mean. Results have been analysed by one way ANOVA and significant differences from the Zucker fatty rat control group have been indicated by an asterisk.

[3] = Zucker fatty (fa/fa) rats treated from age 6-7 weeks for 9 months via the diet
[4] = individual obese Zucker fa/fa rats, test compound in diet 2.0-7.0 μmole/kg body weight daily, 3 months

Q: How did the “rate of development of proteinuria” value [1, 3] turn out when CN(CCOc1ccc(CC2SC(=O)NC2=O)cc1)c1ccccn1 (centres unmarked) [Test Compound, 5-[4-[2-(N-methyl-N-(2-pyridyl)amino)ethoxy]benzyl]thiazolidine-2,4-dione] was run?
A: markedly reduced

Q: What about the “URINARY PROTEIN CONCENTRATION” value ([1]; Zucker fatty rats, 50 μmol/kg of diet from age 6-7 weeks (prior to renal complications), treatment duration 0 months) of the same molecule?
A: 226 ± 15 µg/h

Q: What about the “URINARY PROTEIN CONCENTRATION” value ([1]; Zucker fatty rats, 50 μmol/kg of diet from age 6-7 weeks (prior to renal complications), treatment duration 1 month) of the same molecule?
A: 373 ± 22 µg/h

Q: And the “URINARY PROTEIN CONCENTRATION” value ([1]; Zucker fatty rats, 50 μmol/kg of diet from age 6-7 weeks (prior to renal complications), treatment duration 2 months)?
A: 402 ± 22 µg/h

Q: And the “URINARY PROTEIN CONCENTRATION” value ([1]; Zucker fatty rats, 50 μmol/kg of diet from age 6-7 weeks (prior to renal complications), treatment duration 3 months)?
A: 221 ± 32 µg/h

Q: What about the “URINARY PROTEIN CONCENTRATION” value ([1]; Zucker fatty rats, 50 μmol/kg of diet from age 6-7 weeks (prior to renal complications), treatment duration 4 months) of the same molecule?
A: 376 ± 54 µg/h

Q: What about the “URINARY PROTEIN CONCENTRATION” value ([1]; Zucker fatty rats, 50 μmol/kg of diet from age 6-7 weeks (prior to renal complications), treatment duration 5 months) of the same molecule?
A: 1573 ± 105 µg/h

Q: What about the “URINARY PROTEIN CONCENTRATION” value ([1]; Zucker fatty rats, 50 μmol/kg of diet from age 6-7 weeks (prior to renal complications), treatment duration 6 months) of the same molecule?
A: 1585 ± 147 µg/h

Q: What about the “URINARY PROTEIN CONCENTRATION” value ([1]; Zucker fatty rats, 50 μmol/kg of diet from age 6-7 weeks (prior to renal complications), treatment duration 7 months) of the same molecule?
A: 2124 ± 293 µg/h

Q: And the “URINARY PROTEIN CONCENTRATION” value ([1]; Zucker fatty rats, 50 μmol/kg of diet from age 6-7 weeks (prior to renal complications), treatment duration 8 months)?
A: 2664 ± 370 µg/h

Q: And the “URINARY PROTEIN CONCENTRATION” value ([1]; Zucker fatty rats, 50 μmol/kg of diet from age 6-7 weeks (prior to renal complications), treatment duration 9 months)?
A: 3152 ± 515 µg/h

Q: And the URINARY PROTEIN CONCENTRATION ([1]; Zucker fatty rats, 50 μmol/kg of diet started once renal complications established (after 4 months), treatment duration 0 months)?
A: 3520 ± 905 µg/h

Q: What about the URINARY PROTEIN CONCENTRATION ([1]; Zucker fatty rats, 50 μmol/kg of diet started once renal complications established (after 4 months), treatment duration 1 month) of the same molecule?
A: 3690 ± 386 µg/h

Q: And the URINARY PROTEIN CONCENTRATION ([1]; Zucker fatty rats, 50 μmol/kg of diet started once renal complications established (after 4 months), treatment duration 2 months)?
A: 5330 ± 967 µg/h

Q: And the URINARY PROTEIN CONCENTRATION ([1]; Zucker fatty rats, 50 μmol/kg of diet started once renal complications established (after 4 months), treatment duration 3 months)?
A: 6230 ± 835 µg/h

Q: What about the URINARY PROTEIN CONCENTRATION ([1]; Zucker fatty rats, 50 μmol/kg of diet started once renal complications established (after 4 months), treatment duration 4 months) of the same molecule?
A: 5380 ± 708 µg/h

Q: And the URINARY PROTEIN CONCENTRATION ([1]; Zucker fatty rats, 50 μmol/kg of diet started once renal complications established (after 4 months), treatment duration 5 months)?
A: 7680 ± 825 µg/h

Q: And the URINARY PROTEIN CONCENTRATION ([1]; Zucker fatty rats, 50 μmol/kg of diet started once renal complications established (after 4 months), treatment duration −1 month (before start of drug))?
A: 958 ± 194 µg/h

Q: And the URINARY PROTEIN CONCENTRATION ([1]; Zucker fatty rats, 50 μmol/kg of diet started once renal complications established (after 4 months), treatment duration −2 months (before start of drug))?
A: 457 ± 21 µg/h

Q: What about the URINARY PROTEIN CONCENTRATION ([1]; Zucker fatty rats, 50 μmol/kg of diet started once renal complications established (after 4 months), treatment duration −3 months (before start of drug)) of the same molecule?
A: 347 ± 32 µg/h

Q: What about the URINARY PROTEIN CONCENTRATION ([1]; Zucker fatty rats, 50 μmol/kg of diet started once renal complications established (after 4 months), treatment duration −4 months (before start of drug)) of the same molecule?
A: 220 ± 13 µg/h

Q: And the “rate of increase in the urinary protein concentration” value ([1]; Zucker fatty rats, drug treatment commenced after proteinuria had become established)?
A: marked reduction

Q: And the “Chronic Nephropathy (histopathological severity, kidney)” value (obese Zucker fa/fa rats; [4])?
A: + and ± (8×) and 0 and + +

Q: What about the “Hydronephrosis (histopathological severity, kidney)” value (obese Zucker fa/fa rats; [4]) of the same molecule?
A: 0

Q: And the “incidence and degree of chronic nephropathy” value (obese Zucker fa/fa rats; obese Zucker fa/fa rats, 3 months in diet, compared to control Zucker fa/fa rats)?
A: reduction in the incidence and degree of chronic nephropathy

Q: And the hydronephrosis (obese Zucker fa/fa rats; obese Zucker fa/fa rats, 3 months in diet, control 4/9 mild-moderate)?
A: No hydronephrosis was seen

Q: What about the development of hypertension [2, 3] of the same molecule?
A: prevented the development of hypertension

Q: And the “SYSTOLIC BLOOD PRESSURE” value ([2]; treatment duration 0 months)?
A: 102 ± 3 mm Hg

Q: And the “SYSTOLIC BLOOD PRESSURE” value ([2]; treatment duration 1 month)?
A: 110 ± 3 mm Hg

Q: And the “SYSTOLIC BLOOD PRESSURE” value ([2]; treatment duration 2 months)?
A: 122 ± 4 mm Hg

Q: What about the “SYSTOLIC BLOOD PRESSURE” value ([2]; treatment duration 3 months) of the same molecule?
A: 122 ± 4 mm Hg

Q: What about the “SYSTOLIC BLOOD PRESSURE” value ([2]; treatment duration 4 months) of the same molecule?
A: 126 ± 6 mm Hg

Q: What about the “SYSTOLIC BLOOD PRESSURE” value ([2]; treatment duration 5 months) of the same molecule?
A: 131 ± 4 mm Hg

Q: What about the “SYSTOLIC BLOOD PRESSURE” value ([2]; treatment duration 6 months) of the same molecule?
A: 128 ± 3 mm Hg

Q: What about the “SYSTOLIC BLOOD PRESSURE” value ([2]; treatment duration 7 months) of the same molecule?
A: 125 ± 6 mm Hg
